According to PubChem BioAssay AID1963969 (Molecular Pharmacology Branch, DTP, NCI, 2024):

Tested on: 817829-284-R-J1-PDC multi-cell spheroid viability
Assay: Anticancer human tumor 817829-284-R-J1-PDC patient-derived colon adenocarcinoma cell line growth inhibition [PI3K]
Conditions: for IC50: curve of first compound; for viability, T/C: stronger effect = lower value
How it was run: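 Spheroid viability read-out. Co-cultures contained the tumor line plus HUVEC and human MSCs. Each agent was paired with a PI3K inhibitor (inavolisib, alpelisib, duvelisib, copanlisib) across half-log dilutions starting at clinical Cmax, or at 10 microM when Cmax was unknown.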

[1] = second compound 0.00316 µM, first compound 0.0316 µM
[2] = second compound 0.00316 µM, first compound 0.1 µM
[3] = second compound 0.00316 µM, first compound 0.316 µM
[4] = second compound 0.00316 µM, first compound 1 µM
[5] = second compound 0.00316 µM, first compound 3.16 µM
[6] = second compound 0.00316 µM, first compound 10 µM
[7] = second compound 0.01 µM, first compound 0.0316 µM
[8] = second compound 0.01 µM, first compound 0.1 µM
[9] = second compound 0.01 µM, first compound 0.316 µM
[10] = second compound 0.01 µM, first compound 1 µM
[11] = second compound 0.01 µM, first compound 3.16 µM
[12] = second compound 0.01 µM, first compound 10 µM
[13] = second compound 0.0316 µM, first compound 0.0316 µM
[14] = second compound 0.0316 µM, first compound 0.1 µM
[15] = second compound 0.0316 µM, first compound 0.316 µM
[16] = second compound 0.0316 µM, first compound 1 µM
[17] = second compound 0.0316 µM, first compound 3.16 µM
[18] = second compound 0.0316 µM, first compound 10 µM
[19] = second compound 0.1 µM, first compound 0.0316 µM
[20] = second compound 0.1 µM, first compound 0.1 µM
[21] = second compound 0.1 µM, first compound 0.316 µM
[22] = second compound 0.1 µM, first compound 1 µM
[23] = second compound 0.1 µM, first compound 3.16 µM
[24] = second compound 0.1 µM, first compound 10 µM
[25] = second compound 0.316 µM, first compound 0.0316 µM
[26] = second compound 0.316 µM, first compound 0.1 µM
[27] = second compound 0.316 µM, first compound 0.316 µM
[28] = second compound 0.316 µM, first compound 1 µM
[29] = second compound 0.316 µM, first compound 3.16 µM
[30] = second compound 0.316 µM, first compound 10 µM
[31] = second compound 1 µM, first compound 0.0316 µM
[32] = second compound 1 µM, first compound 0.1 µM
[33] = second compound 1 µM, first compound 0.316 µM
[34] = second compound 1 µM, first compound 1 µM
[35] = second compound 1 µM, first compound 3.16 µM
[36] = second compound 1 µM, first compound 10 µM
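Also: spheroids exposed to agents for seven days before readout.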
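For viability, T/C in this document: percent of vehicle DMSO control viability which is 100%.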

CC1(C)CCC(CN2CCN(c3ccc(C(=O)NS(=O)(=O)c4ccc(NCC5CCOCC5)c([N+](=O)[O-])c4)c(Oc4cnc5[nH]ccc5c4)c3)CC2)=C(c2ccc(Cl)cc2)C1 + CC(Nc1ccc2c(c1)OCCn1cc(N3C(=O)OCC3C(F)F)nc1-2)C(N)=O
IC50 (second compound 0.00316 µM): 4.08 µM
IC50 (second compound 0.01 µM): 3.7 µM
IC50 (second compound 0.0316 µM): 2.67 µM
IC50 (second compound 0.1 µM): 0.605 µM
IC50 (second compound 0.316 µM): 0.0316 µM
IC50 (second compound 1 µM): 2.79 µM
viability, T/C [1]: 74.4%
viability, T/C [2]: 87.8%
viability, T/C [3]: 38.3%
viability, T/C [4]: 71.4%
viability, T/C [5]: 62.4%
viability, T/C [6]: 5.89%
viability, T/C [7]: 55.4%
viability, T/C [8]: 64.8%
viability, T/C [9]: 106%
viability, T/C [10]: 69.1%
viability, T/C [11]: 57.3%
viability, T/C [12]: 5.49%
viability, T/C [13]: 66.2%
viability, T/C [14]: 107%
viability, T/C [15]: 60.8%
viability, T/C [16]: 65.3%
viability, T/C [17]: 49.8%
viability, T/C [18]: 6.29%
viability, T/C [19]: 78.9%
viability, T/C [20]: 54.8%
viability, T/C [21]: 58.1%
viability, T/C [22]: 39.4%
viability, T/C [23]: 39.2%
viability, T/C [24]: 3.75%
viability, T/C [25]: 45.7%
viability, T/C [26]: 44.6%
viability, T/C [27]: 59.5%
viability, T/C [28]: 41.2%
viability, T/C [29]: 60.4%
viability, T/C [30]: 3.08%
viability, T/C [31]: 77.2%
viability, T/C [32]: 44%
viability, T/C [33]: 70.8%
viability, T/C [34]: 59%
viability, T/C [35]: 49%
viability, T/C [36]: 6.25%

CNC(=O)c1ccc(N2C(=S)N(c3ccc(C#N)c(C(F)(F)F)c3)C(=O)C2(C)C)cc1F + CC(Nc1ccc2c(c1)OCCn1cc(N3C(=O)OCC3C(F)F)nc1-2)C(N)=O
IC50 (second compound 0.00316 µM): > 10 µM
IC50 (second compound 0.01 µM): > 10 µM
IC50 (second compound 0.0316 µM): > 10 µM
IC50 (second compound 0.1 µM): 4.18 µM
IC50 (second compound 0.316 µM): 3.37 µM
IC50 (second compound 1 µM): < 0.0316 µM
viability, T/C [1]: 57.7%
viability, T/C [2]: 88.8%
viability, T/C [3]: 109%
viability, T/C [4]: 75.6%
viability, T/C [5]: 61.9%
viability, T/C [6]: 50.9%
viability, T/C [7]: 86.1%
viability, T/C [8]: 77.6%
viability, T/C [9]: 89.1%
viability, T/C [10]: 70.7%
viability, T/C [11]: 60.5%
viability, T/C [12]: 71.4%
viability, T/C [13]: 70.1%
viability, T/C [14]: 79.2%
viability, T/C [15]: 87.5%
viability, T/C [16]: 56.7%
viability, T/C [17]: 67.1%
viability, T/C [18]: 54.6%
viability, T/C [19]: 56.5%
viability, T/C [20]: 53.4%
viability, T/C [21]: 65.9%
viability, T/C [22]: 48.9%
viability, T/C [23]: 61.6%
viability, T/C [24]: 27.3%
viability, T/C [25]: 46.8%
viability, T/C [26]: 61.8%
viability, T/C [27]: 58%
viability, T/C [28]: 53.5%
viability, T/C [29]: 51%
viability, T/C [30]: 32.8%
viability, T/C [31]: 32.4%
viability, T/C [32]: 40.7%
viability, T/C [33]: 44.9%
viability, T/C [34]: 45.9%
viability, T/C [35]: 41.4%
viability, T/C [36]: 20.6%

CC(C)n1nc(-c2ccc3oc(N)nc3c2)c2c(N)ncnc21 + COc1c(OCCCN2CCOCC2)ccc2c3n(c(=NC(=O)c4cnc(N)nc4)nc12)CCN3
IC50 (second compound 0.00316 µM): 0.0136 µM
IC50 (second compound 0.01 µM): 0.0161 µM
IC50 (second compound 0.0316 µM): 0.00526 µM
IC50 (second compound 0.1 µM): < 0.000316 µM
IC50 (second compound 0.316 µM): < 0.000316 µM
IC50 (second compound 1 µM): < 0.000316 µM
viability, T/C (second compound 0.00316 µM, first compound 0.000316 µM): 66.8%
viability, T/C (second compound 0.00316 µM, first compound 0.001 µM): 83.7%
viability, T/C (second compound 0.00316 µM, first compound 0.00316 µM): 72.2%
viability, T/C (second compound 0.00316 µM, first compound 0.01 µM): 45.5%
viability, T/C [1]: 42.6%
viability, T/C [2]: 17.8%
viability, T/C (second compound 0.01 µM, first compound 0.000316 µM): 44%
viability, T/C (second compound 0.01 µM, first compound 0.001 µM): 83.3%
viability, T/C (second compound 0.01 µM, first compound 0.00316 µM): 67.6%
viability, T/C (second compound 0.01 µM, first compound 0.01 µM): 70.9%
viability, T/C [7]: 26.6%
viability, T/C [8]: 14.4%
viability, T/C (second compound 0.0316 µM, first compound 0.000316 µM): 78.5%
viability, T/C (second compound 0.0316 µM, first compound 0.001 µM): 72.7%
viability, T/C (second compound 0.0316 µM, first compound 0.00316 µM): 45.5%
viability, T/C (second compound 0.0316 µM, first compound 0.01 µM): 46.5%
viability, T/C [13]: 37.7%
viability, T/C [14]: 19.6%
viability, T/C (second compound 0.1 µM, first compound 0.000316 µM): 31.9%
viability, T/C (second compound 0.1 µM, first compound 0.001 µM): 31.8%
viability, T/C (second compound 0.1 µM, first compound 0.00316 µM): 38%
viability, T/C (second compound 0.1 µM, first compound 0.01 µM): 31.1%
viability, T/C [19]: 26.9%
viability, T/C [20]: 17%
viability, T/C (second compound 0.316 µM, first compound 0.000316 µM): 21.1%
viability, T/C (second compound 0.316 µM, first compound 0.001 µM): 22.8%
viability, T/C (second compound 0.316 µM, first compound 0.00316 µM): 23.6%
viability, T/C (second compound 0.316 µM, first compound 0.01 µM): 17.7%
viability, T/C [25]: 21.8%
viability, T/C [26]: 18.7%
viability, T/C (second compound 1 µM, first compound 0.000316 µM): 9.62%
viability, T/C (second compound 1 µM, first compound 0.001 µM): 14%
viability, T/C (second compound 1 µM, first compound 0.00316 µM): 9.7%
viability, T/C (second compound 1 µM, first compound 0.01 µM): 10.8%
viability, T/C [31]: 8.57%
viability, T/C [32]: 6.68%
